These results are taken from patent US6500222B2, “Diureides and their use” (priority 1999, dated 2002).

In one experiment the test system is ryegrass. Put plainly: Crop production experiment in Mitscherlich containers with ryegrass as test crop. The conditions noted are these: 2.4 g of N per container.
Experiment [1] relates to mustard seedlings (Sinapis alba, 'Maxi'). The experiment is described as follows: Mustard seedling test on plant tolerance, growth and yield.
[2] abbreviates: N fertilization 100 mg/container, DAT 13.
Setting [3] is: N fertilization 100 mg/container, DAT 23.
[4] abbreviates: N fertilization 200 mg/container, DAT 13.
[5] abbreviates: N fertilization 200 mg/container, DAT 23.
Setting [6] is: N fertilization 400 mg/container, DAT 13.
[7] abbreviates: N fertilization 400 mg/container, DAT 23.

In the case of fumaric acid diureide [Compound 1C], the Dry-matter production came to 4.2 g/container in the experiment with ryegrass (day 16 post-fertilization); 1.9 g/container in the experiment on ryegrass (day 30 post-fertilization); 2.1 g/container in the experiment on ryegrass (day 45 post-fertilization); 3.4 g/container with ryegrass (day 58 post-fertilization); 3.3 g/container with ryegrass (day 78 post-fertilization); 5.1 g/container in the experiment with ryegrass (day 125 post-fertilization). For the same substance, the Nitrogen uptake is 112 mg/container in the experiment with ryegrass (day 16 post-fertilization); 60 mg/container with ryegrass (day 30 post-fertilization); 69 mg/container in the experiment on ryegrass (day 45 post-fertilization); 108 mg/container with ryegrass (day 58 post-fertilization); 104 mg/container with ryegrass (day 78 post-fertilization); 138 mg/container in the experiment with ryegrass (day 125 post-fertilization).
malonic acid diureide [Compound 1A]: the Dry-matter production in the experiment with ryegrass (day 16 post-fertilization) came out at 5.7 g/container; in the experiment on ryegrass (day 30 post-fertilization), 2.5 g/container; with ryegrass (day 45 post-fertilization), 3.8 g/container; in the experiment with ryegrass (day 58 post-fertilization), 3.1 g/container; in the experiment on ryegrass (day 78 post-fertilization), 5.4 g/container; with ryegrass (day 100 post-fertilization), 6.3 g/container. Also, the Dry-matter production in the experiment on ryegrass (day 125 post-fertilization) came to 9.3 g/container; with ryegrass (day 174 post-fertilization) it was 7.2 g/container; in the experiment on ryegrass (day 252 post-fertilization), 4.5 g/container. Moreover, the Nitrogen uptake worked out at 185 mg/container in the experiment with ryegrass (day 16 post-fertilization); 97 mg/container in the experiment on ryegrass (day 30 post-fertilization); 130 mg/container with ryegrass (day 45 post-fertilization); 119 mg/container in the experiment with ryegrass (day 58 post-fertilization); 180 mg/container in the experiment on ryegrass (day 78 post-fertilization); 204 mg/container in the experiment on ryegrass (day 100 post-fertilization). Also, the Nitrogen uptake is given as 283 mg/container in the experiment on ryegrass (day 125 post-fertilization), 154 mg/container in the experiment with ryegrass (day 174 post-fertilization) and 145 mg/container in the experiment on ryegrass (day 252 post-fertilization).
Turning to “bis(N′-potassium sulfamate)malonic acid diureide [IaB]”, the “"Greenness" (%) (N supply) 100% = dark green” value (from here on “"Greenness" (%)”) worked out at 70% in experiment [1] (setting [2]); 30% in experiment [1] (setting [3]); 80% in experiment [1] (setting [4]); 85% in experiment [1] (setting [5]); 85% in experiment [1] (setting [6]); 85% in experiment [1] (setting [7]). Further, the FW yield in experiment [1] (setting [3]) turned out to be 7.1 g/container; in experiment [1] (setting [5]) it was 4.7 g/container; in experiment [1] (setting [7]), 3.7 g/container. In addition, the “N content in the DM (%)” value is recorded as 3.1% in experiment [1] (setting [3]), 5.3% in experiment [1] (setting [5]) and 6.6% in experiment [1] (setting [7]). The figures for the “N uptake in the shoot” value in experiment [1] (setting [3]), in experiment [1] (setting [5]) and in experiment [1] (setting [7]) were 46 mg/container, 80 mg/container and 90 mg/container, respectively.
Consider “bis(N′-potassium sulfamate)succinic diureide [IaA]”, for which the “"Greenness" (%)” value in experiment [1] (setting [2]), in experiment [1] (setting [3]), in experiment [1] (setting [4]), in experiment [1] (setting [5]), in experiment [1] (setting [6]) and in experiment [1] (setting [7]) was 30% in each case. Moreover, the FW yield in experiment [1] (setting [3]) turned out to be 10.4 g/container; in experiment [1] (setting [5]), 10.4 g/container; in experiment [1] (setting [7]) it was 10.6 g/container. In addition, the “N content in the DM (%)” value was determined as 1.5% in experiment [1] (setting [3]), 1.7% in experiment [1] (setting [5]) and 1.9% in experiment [1] (setting [7]). The “N uptake in the shoot” value was found to be 27 mg/container in experiment [1] (setting [3]), 28 mg/container in experiment [1] (setting [5]) and 29 mg/container in experiment [1] (setting [7]).
Urea [reference compound]: the “"Greenness" (%)” value in experiment [1] (setting [2]), in experiment [1] (setting [3]), in experiment [1] (setting [4]) and in experiment [1] (setting [5]) was 100% throughout. Also, the FW yield in experiment [1] (setting [3]) is recorded as 19.6 g/container; in experiment [1] (setting [5]) it was 1.6 g/container. Further, the “N content in the DM (%)” value in experiment [1] (setting [3]) amounted to 4.3%; in experiment [1] (setting [5]), 6.5%. The “N uptake in the shoot” value is 84 mg/container in experiment [1] (setting [3]) and 10 mg/container in experiment [1] (setting [5]). The Dry-matter production in the experiment with ryegrass (day 16 post-fertilization) came out at 7.7 g/container; in the experiment on ryegrass (day 30 post-fertilization) it was 5.6 g/container; in the experiment on ryegrass (day 45 post-fertilization) it was 8.6 g/container; in the experiment with ryegrass (day 58 post-fertilization), 8.6 g/container; in the experiment on ryegrass (day 78 post-fertilization), 5.9 g/container; in the experiment with ryegrass (day 100 post-fertilization), 2.3 g/container. The Dry-matter production in the experiment on ryegrass (day 125 post-fertilization) and in the experiment with ryegrass (day 174 post-fertilization) was 1.4 g/container in each case. In addition, the Nitrogen uptake in the experiment with ryegrass (day 16 post-fertilization) amounted to 480 mg/container; in the experiment on ryegrass (day 30 post-fertilization), 311 mg/container; in the experiment with ryegrass (day 45 post-fertilization), 404 mg/container; in the experiment on ryegrass (day 58 post-fertilization) it was 410 mg/container; in the experiment with ryegrass (day 78 post-fertilization), 127 mg/container; in the experiment with ryegrass (day 100 post-fertilization), 50 mg/container. Moreover, the results for the Nitrogen uptake in the experiment on ryegrass (day 125 post-fertilization) and in the experiment on ryegrass (day 174 post-fertilization) were 33 mg/container and 27 mg/container, respectively.
In the case of succinic acid diureide [Compound 1B], the Dry-matter production in the experiment on ryegrass (day 16 post-fertilization) is 4 g/container; in the experiment with ryegrass (day 30 post-fertilization), 1.7 g/container; with ryegrass (day 45 post-fertilization), 1.3 g/container; in the experiment with ryegrass (day 58 post-fertilization), 2.2 g/container; with ryegrass (day 78 post-fertilization), 4.6 g/container; in the experiment on ryegrass (day 125 post-fertilization), 9.6 g/container. Also, the Nitrogen uptake is 114 mg/container in the experiment on ryegrass (day 16 post-fertilization); 50 mg/container in the experiment with ryegrass (day 30 post-fertilization); 36 mg/container in the experiment on ryegrass (day 45 post-fertilization); 69 mg/container in the experiment with ryegrass (day 58 post-fertilization); 161 mg/container in the experiment with ryegrass (day 78 post-fertilization); 281 mg/container in the experiment with ryegrass (day 125 post-fertilization).
